Test results: patent EP0663826B1, “AMINO ACIDS CONTAINING PARENTERAL FORMULATIONS FOR THE TREATMENT OF HYPOTENSION AND RELATED PATHOLOGIES” (BOARD OF REGENTS THE UNIVERSITY OF TEXAS SYSTEM, priority 1991, dated 1993)

Columns and labels:
[1] = tested on: endotoxin-induced shock in dogs; assay: Endotoxin-induced hypotension in dogs (with nitroglycerin and control dogs); assay type: in vivo; conditions: Study 2: Nitroglycerin-treated dogs (n=3)
Procedure: Animals: Studies were carried out on 12 conditioned mongrel dogs (9 males and 3 females) weighing 22-32 kg (avg=25.3 kg). Animal care was in accordance with the recommendations of the American Association for Accreditation of Laboratory Animal Care, and met all standards prescribed by the Guide for the Care and Use of Laboratory Animals (Guide for the Care and Use of Laboratory Animals (1978) Dept. of Health, Education and Welfare, Washington, D.C. (Publ. No. 78-23). Animal protocols were approved by The University of Texas Animal Welfare committee. The dogs were fasted overnight prior to the day of experimentation. They were anesthetized with sodium pentobarbital (25 mg/kg i.v.). Dogs were then endotracheally intubated and ventilated with a piston-driven respirator (Harvard instruments) using room air at a tidal volume of 15 ml/kg and at a rate of 12 to 14 breaths per minute, adjusted to achieve a normal arterial pH and pCO2 (Instrumentation Laboratories lL1302 pH/Blood Gas Analyzer). Catheters were placed percutaneously into the femoral and pulmonary arteries; In the latter, a flow-directed thermal-dilation catheter was used (Abbott Critical Care Systems).
Physiologic measurements: Mean SAP and heart rate were continuously monitored (Parametron 7048 Monitoring System, Roche) and stored on a magnetic disk using an analog-to-digital converter (Scientific Solutions, Inc.). Cardiac output (CO) was determined as the mean of six measurements by thermal-dilution. Systemic vascular resistance was calculated as (SAP X80)/CO and expressed as dynes-sec/cm^5 (kg/s·cm^4).
Protocol: After the blood pressure and heart rate stabilized, endotoxin (40 µg/kg, in 10 ml of phosphate-buffered saline (PBS), pH 7.4) was infused i.v. over 2 minutes. This dose of endotoxin typically induces severe and often lethal cardiovascular collapse in the dog. Blood pressure was monitored, and when either SAP fell below 60 mm Hg or a stable nadir in systemic arterial pressure (SAP) was maintained for 10 minutes, L-NMA was administered (20 mg/kg in 5 ml of PBS i.v. over 1 min.). In most experiments, L-arginine (400 mg/kg in 20 ml PBS) was administered ten minutes later by i.v. infusion over 2 minutes. In control experiments, dogs without prior exposure to endotoxin received L-NMA alone. To simulate the hypotension observed in dogs receiving endotoxin, one group of dogs received a continuous i.v. infusion of nitroglycerin (2 mg/ml) at a rate adjusted to maintain the SAP at 60-70 mm Hg. Nitroglycerin-treated dogs then received L-NMA (20 mg/kg) and 20 minutes later L-arginine was administered ([…]).
Statistics: Statistical significance was evaluated using Student's test and either a one-tailed or two-tailed analysis as appropriate for comparisons.

pithed rats = assay: Blood pressure response to phenylephrine in pithed rats without/with arginase; assay type: in vivo; conditions: for Blood Pressure Increase With Arginase Ave. ± S.D.: after arginase; for difference in pressor response between control and endotoxic animals: phenylephrine 6 µg/Kg
Procedure: Animals were pithed as described in Example 1. Blood pressure measurements were obtained also as described in Example 1. Arginase was also prepared according to the method described in Example 1.
Both left and right jugular veins were cannulated for drug administration; and left jugular was used for bolus administration of phenylephrine and the right jugular vein was used for continuous infusion of arginase. All animals from both groups (Control and Endotoxin) received phenylephrine in sequential doses of 0.3, 1.0, 2.0, or 6.0 ug/Kg.
Endotoxin (15 mg/kg body weight) was given by intravenous injection 6 hrs before the experiment began; arginase (300 I.U./Min. for 20 min.) was given intravenously to each rat after the "Without Arginase" measurements were made.
For the second, third and fourth rats, the blood pressure increments were 14, 32 and 9 before arginase, respectively, and 9, 20 and 10 after arginase, respectively.

[2] = Study #1: Control Animals, phenylephrine 0.3 µg/Kg
[3] = Study #1: Control Animals, phenylephrine 1.0 µg/Kg
[4] = Study #1: Control Animals, phenylephrine 2.0 µg/Kg
[5] = Study #1: Control Animals, phenylephrine 6.0 µg/Kg
[6] = Study #2: Endotoxic Animals, phenylephrine 0.3 µg/Kg
[7] = Study #2: Endotoxic Animals, phenylephrine 1.0 µg/Kg
[8] = Study #2: Endotoxic Animals, phenylephrine 2.0 µg/Kg
[9] = Study #2: Endotoxic Animals, phenylephrine 6.0 µg/Kg

O=[N+]([O-])OCC(CO[N+](=O)[O-])O[N+](=O)[O-] [Nitroglycerin]
Cardiac Output ([1]; means ± S.E., baseline 3.14 ± 0.21): 2.72 ± 0.27 L/min
Heart Rate ([1]; means ± S.E., baseline 143.7 ± 12.1): 137.3 ± 5.0 beats/min
Systemic Vascular Resistance ([1]; means ± S.E., baseline 3294 ± 74): 1924 ± 132 dynes-sec/cm^5
Systemic Arterial Pressure ([1]; means ± S.E., continuous nitroglycerin (2 mg/ml) titrated to SAP 65 mm Hg, then L-NMA 20 mg/kg, then L-arginine, baseline 129.3 ± 10.2): 64.7 ± 2.7 mmHg
Systemic Vascular Resistance ([1]; value in brackets): 1.924 ± 0.132 Kg/s·cm^4

CNC[C@H](O)c1cccc(O)c1 [Phenylephrine, phenylephrine]
Blood Pressure Increase Without Arginase Ave. ± S.D. (pithed rats; [2]): 17.8 ± 5.0 mm Hg
Blood Pressure Increase With Arginase Ave. ± S.D. (pithed rats; [2]): 13.3 ± 2.5 mm Hg
Blood Pressure Increase Without Arginase Ave. ± S.D. (pithed rats; [3]): 31.3 ± 4.0 mm Hg
Blood Pressure Increase With Arginase Ave. ± S.D. (pithed rats; [3]): 22.5 ± 6.1 mm Hg
Blood Pressure Increase Without Arginase Ave. ± S.D. (pithed rats; [4]): 51.0 ± 6.6 mm Hg
Blood Pressure Increase With Arginase Ave. ± S.D. (pithed rats; [4]): 38.8 ± 9.1 mm Hg
Blood Pressure Increase Without Arginase Ave. ± S.D. (pithed rats; [5]): 93.0 ± 10.3 mm Hg
Blood Pressure Increase With Arginase Ave. ± S.D. (pithed rats; [5]): 79.8 ± 13.4 mm Hg
Blood Pressure Increase Without Arginase Ave. ± S.D. (pithed rats; [6]): 2.2 ± 0.7 mm Hg
Blood Pressure Increase With Arginase Ave. ± S.D. (pithed rats; [6]): 2.0 ± 0.6 mm Hg
Blood Pressure Increase Without Arginase Ave. ± S.D. (pithed rats; [7]): 7.0 ± 1.1 mm Hg
Blood Pressure Increase With Arginase Ave. ± S.D. (pithed rats; [7]): 9.0 ± 1.8 mm Hg
Blood Pressure Increase Without Arginase Ave. ± S.D. (pithed rats; [8]): 13.6 ± 2.6 mm Hg
Blood Pressure Increase With Arginase Ave. ± S.D. (pithed rats; [8]): 23.3 ± 5.3 mm Hg
Blood Pressure Increase Without Arginase Ave. ± S.D. (pithed rats; [9]): 33.7 ± 9.6 mm Hg
Blood Pressure Increase With Arginase Ave. ± S.D. (pithed rats; [9]): 48.5 ± 7.6 mm Hg
difference in pressor response between control and endotoxic animals (pithed rats; animals given arginase): 31.3 mm Hg
difference in pressor response between control and endotoxic animals (pithed rats; animals not given arginase): 59.3 mm Hg
